Literature values in US20240216401A1, “COMBINATION THERAPY BY USING AKR1C3-ACTIVATED COMPOUND WITH IMMUNE CHECKPOINT INHIBITOR” (OBI Pharma, Inc., priority 2021, published 2024).

System: tumor
Settings: in vitro and in vivo; references 6, 21; cited from earlier work

SMILES: CS(=O)(=O)OCCN(CCBr)c1c(C(=O)NCCOP(=O)(O)O)cc([N+](=O)[O-])cc1[N+](=O)[O-] [PR104]
- anti-tumor activity (in words): good anti-tumor activity
